Assay results as given in the NIST ThermoML archive (doi:10.1021/je9005618).

Test: xn = mol fraction of the nth substance listed
Details: 101 kPa, Liquid

CCn1cc[n+](C)c1.O=S(=O)([O-])C(F)(F)F [1-ethyl-3-methylimidazolium trifluoromethanesulfonate] + COC(C)=O
Details	mass density, 278.15 K [kg/m3]	mass density, 288.15 K [kg/m3]	mass density, 298.15 K [kg/m3]	mass density, 308.15 K [kg/m3]	mass density, 318.15 K [kg/m3]	speed of sound, 278.15 K [m/s]	speed of sound, 288.15 K [m/s]	speed of sound, 298.15 K [m/s]	speed of sound, 308.15 K [m/s]	speed of sound, 318.15 K [m/s]
x1 = 0.0502	1010.1	997.8	985.37	972.78	960.03	1259.8	1215.5	1171.7	1128.2	1084.8
x1 = 0.1006	1058.3	1046.52	1034.65	1022.69	1010.6	1278.4	1236.5	1195.1	1153.8	1112.8
x1 = 0.1501	1099.41	1088.09	1076.72	1065.29	1053.78	1298.1	1258.5	1219.4	1180.5	1141.9
x1 = 0.2001	1135.42	1124.48	1113.53	1102.55	1091.53	1316.6	1279.2	1242.4	1205.9	1169.7
x1 = 0.3003	1196.62	1186.31	1176.03	1165.76	1155.5	1350.2	1316.6	1283.5	1250.8	1218.7
x1 = 0.3999	1243.17	1233.3	1223.49	1213.71	1203.97	1376.9	1346	1315.8	1285.9	1256.7
x1 = 0.4997	1281.71	1272.18	1262.72	1253.32	1243.97	1400	1371.2	1343	1315.5	1288.5
x1 = 0.6	1313.96	1304.71	1295.53	1286.43	1277.38	1420.4	1393.3	1366.8	1340.9	1315.6
x1 = 0.7	1341.07	1332.05	1323.1	1314.23	1305.42	1438.5	1412.7	1387.6	1362.9	1338.9
x1 = 0.7986	1363.97	1355.14	1346.39	1337.7	1329.08	1454.4	1429.7	1405.6	1382	1358.9
x1 = 0.8509	1374.9	1366.17	1357.51	1348.91	1340.38	1462.2	1438	1414.4	1391.2	1368.6
x1 = 0.9008	1384.25	1375.61	1367.03	1358.51	1350.04	1469.1	1445.3	1422	1399.2	1377
x1 = 0.9504	1393.09	1384.52	1376.02	1367.58	1359.19	1475.6	1452	1429.1	1406.7	1384.8

CCn1cc[n+](C)c1.O=S(=O)([O-])C(F)(F)F [1-ethyl-3-methylimidazolium trifluoromethanesulfonate] + CCOC(C)=O
Details	mass density [kg/m3]	speed of sound [m/s]
278.15 K, x1 = 0.0501	967.32	1238
278.15 K, x1 = 0.1003	1011.38	1249
278.15 K, x1 = 0.1502	1051.15	1263.8
278.15 K, x1 = 0.2004	1087.57	1280.5
278.15 K, x1 = 0.3002	1150.92	1313.9
278.15 K, x1 = 0.4002	1203.84	1343.7
278.15 K, x1 = 0.5002	1248.95	1371.2
278.15 K, x1 = 0.6009	1288.17	1397
278.15 K, x1 = 0.6999	1321.89	1420.5
278.15 K, x1 = 0.8006	1351.91	1442.8
278.15 K, x1 = 0.8492	1365.02	1453
278.15 K, x1 = 0.9008	1378.11	1463.2
278.15 K, x1 = 0.9501	1389.89	1472.6
288.15 K, x1 = 0.0501	955.66	1193.7
288.15 K, x1 = 0.1003	999.99	1206.1
288.15 K, x1 = 0.1502	1040.09	1222.8
288.15 K, x1 = 0.2004	1076.84	1241.5
288.15 K, x1 = 0.3002	1140.7	1278.8
288.15 K, x1 = 0.4002	1194.03	1311.7
288.15 K, x1 = 0.5002	1239.47	1341.6
288.15 K, x1 = 0.6009	1278.96	1369.4
288.15 K, x1 = 0.6999	1312.9	1394
288.15 K, x1 = 0.8006	1343.1	1417.9
288.15 K, x1 = 0.8492	1356.29	1428.6
288.15 K, x1 = 0.9008	1369.47	1439.3
288.15 K, x1 = 0.9501	1381.32	1449
298.15 K, x1 = 0.0501	943.87	1150
298.15 K, x1 = 0.1003	988.52	1163.9
298.15 K, x1 = 0.1502	1028.97	1182.5
298.15 K, x1 = 0.2004	1066.05	1203
298.15 K, x1 = 0.3002	1130.49	1244.2
298.15 K, x1 = 0.4002	1184.26	1280.4
298.15 K, x1 = 0.5002	1230.04	1312.7
298.15 K, x1 = 0.6009	1269.8	1342.4
298.15 K, x1 = 0.6999	1303.96	1369
298.15 K, x1 = 0.8006	1334.35	1393.7
298.15 K, x1 = 0.8492	1347.63	1404.8
298.15 K, x1 = 0.9008	1360.89	1416
298.15 K, x1 = 0.9501	1372.81	1426
308.15 K, x1 = 0.0501	931.96	1106.8
308.15 K, x1 = 0.1003	976.94	1121.8
308.15 K, x1 = 0.1502	1017.77	1142.2
308.15 K, x1 = 0.2004	1055.22	1165.1
308.15 K, x1 = 0.3002	1120.28	1210.2
308.15 K, x1 = 0.4002	1174.52	1249.5
308.15 K, x1 = 0.5002	1220.67	1284.4
308.15 K, x1 = 0.6009	1260.71	1316
308.15 K, x1 = 0.6999	1295.11	1344.2
308.15 K, x1 = 0.8006	1325.68	1370
308.15 K, x1 = 0.8492	1339.04	1381.6
308.15 K, x1 = 0.9008	1352.38	1393.2
308.15 K, x1 = 0.9501	1364.37	1403.6
318.15 K, x1 = 0.0501	919.88	1063.9
318.15 K, x1 = 0.1003	965.24	1080.1
318.15 K, x1 = 0.1502	1006.48	1102.3
318.15 K, x1 = 0.2004	1044.34	1127.3
318.15 K, x1 = 0.3002	1110.07	1176.5
318.15 K, x1 = 0.4002	1164.82	1219
318.15 K, x1 = 0.5002	1211.35	1256.6
318.15 K, x1 = 0.6009	1251.69	1290.1
318.15 K, x1 = 0.6999	1286.31	1319.8
318.15 K, x1 = 0.8006	1317.07	1346.8
318.15 K, x1 = 0.8492	1330.51	1358.8
318.15 K, x1 = 0.9008	1343.92	1370.8
318.15 K, x1 = 0.9501	1355.98	1381.6
328.15 K, x1 = 0.0501	907.62	1021.3
328.15 K, x1 = 0.1003	953.35	1039.2
328.15 K, x1 = 0.1502	995.07	1062.7
328.15 K, x1 = 0.2004	1033.39	1090
328.15 K, x1 = 0.3002	1099.87	1143.3
328.15 K, x1 = 0.4002	1155.15	1189.3
328.15 K, x1 = 0.5002	1202.08	1229.4
328.15 K, x1 = 0.6009	1242.72	1264.9
328.15 K, x1 = 0.6999	1277.58	1296
328.15 K, x1 = 0.8006	1308.52	1324.1
328.15 K, x1 = 0.8492	1322.04	1336.5
328.15 K, x1 = 0.9008	1335.52	1348.9
328.15 K, x1 = 0.9501	1347.65	1360.1

CCn1cc[n+](C)c1.O=S(=O)([O-])C(F)(F)F [1-ethyl-3-methylimidazolium trifluoromethanesulfonate] + CC(C)=O
Details	mass density, 278.15 K [kg/m3]	mass density, 288.15 K [kg/m3]	mass density, 298.15 K [kg/m3]	mass density, 308.15 K [kg/m3]	mass density, 318.15 K [kg/m3]	speed of sound, 278.15 K [m/s]	speed of sound, 288.15 K [m/s]	speed of sound, 298.15 K [m/s]	speed of sound, 308.15 K [m/s]	speed of sound, 318.15 K [m/s]
x1 = 0.05	887.53	876.86	866.08	855.21	844.23	1280.3	1233.3	1191.1	1149.9	1109.3
x1 = 0.0999	953.96	943.44	932.87	922.28	911.64	1299.7	1253.5	1214.3	1176	1138.2
x1 = 0.1501	1010.97	1000.75	990.52	980.27	969.97	1313.5	1273.1	1236.6	1200.8	1165.4
x1 = 0.2004	1060.17	1050.21	1040.29	1030.37	1020.44	1327.8	1291.8	1257.5	1223.7	1190.4
x1 = 0.2988	1138.02	1128.31	1118.66	1109.04	1099.45	1356.4	1324.7	1293.5	1262.9	1232.8
x1 = 0.4007	1201.1	1191.78	1182.49	1173.23	1164.02	1382.4	1353	1324.3	1296.1	1268.4
x1 = 0.5006	1250.85	1241.69	1232.59	1223.54	1214.55	1404.5	1376.7	1349.7	1323	1297.1
x1 = 0.6007	1291.81	1282.81	1273.89	1265.02	1256.22	1423.5	1397.2	1371.6	1346.5	1322
x1 = 0.7014	1326.9	1318.05	1309.28	1300.58	1291.94	1441	1415.8	1391.3	1367.3	1343.8
x1 = 0.7998	1354.5	1345.77	1337.12	1328.53	1320.01	1455.6	1430.9	1407	1383.7	1361
x1 = 0.8435	1365.96	1357.29	1348.69	1340.15	1331.68	1462.5	1437.8	1414.3	1391.2	1368.7
x1 = 0.9006	1379.4	1370.81	1362.28	1353.81	1345.41	1469.4	1445.7	1422.5	1399.9	1377.7
x1 = 0.9489	–	–	–	–	1356.74	–	–	–	–	1384.7
x1 = 0.9501	1390.54	1382	1373.52	1365.09	–	1475.9	1452.1	1429.1	1406.7	–
